# In ChEMBL document CHEMBL1155285, “3D-QSAR CoMFA/CoMSIA models based on theoretical active conformers of HOE/BAY-793 analogs derived from HIV-1 protease inhibitor complexes” (Eur J Med Chem, 2009):
# Biological target: Protease (Human immunodeficiency virus 1, UniProt Q9YQ12)
# Test: Inhibition of HIV1 protease expressed in Escherichia coli K12 assessed as inhibition of enzyme activity
# Chain of Protease (Q9YQ12 whole entry): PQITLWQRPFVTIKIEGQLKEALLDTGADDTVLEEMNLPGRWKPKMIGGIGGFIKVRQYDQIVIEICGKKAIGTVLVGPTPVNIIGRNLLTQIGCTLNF
row,SMILES,IC50 [nM]
1,CC(C)[C@H](NC(=O)OCc1ccccc1)C(=O)N[C@@H](Cc1ccccc1)[C@@H](O)[C@H](O)[C@H](Cc1ccccc1)NC(=O)[C@@H](NC(=O)OCc1ccccc1)C(C)C,2
2,CC(C)[C@H](NC(=O)[C@H](Cc1cccc2ccccc12)CS(=O)(=O)C(C)(C)C)C(=O)N[C@@H](CCc1ccncc1)[C@@H](O)[C@H](O)[C@H](CCc1ccncc1)NC(=O)[C@@H](NC(=O)[C@H](Cc1cccc2ccccc12)CS(=O)(=O)C(C)(C)C)C(C)C,141
3,CC(C)[C@H](NC(=O)[C@H](Cc1cccc2ccccc12)CS(=O)(=O)C(C)(C)C)C(=O)N[C@@H](Cc1cccc2c1OCO2)[C@@H](O)[C@H](O)[C@H](Cc1cccc2c1OCO2)NC(=O)[C@@H](NC(=O)[C@H](Cc1cccc2ccccc12)CS(=O)(=O)C(C)(C)C)C(C)C,0.398
4,CCC(C)[C@H](NC(=O)[C@H](Cc1cccc2ccccc12)CS(=O)(=O)C(C)(C)C)C(=O)N[C@@H](Cc1ccccc1)[C@@H](O)[C@H](O)[C@H](Cc1ccccc1)NC(=O)[C@@H](NC(=O)[C@H](Cc1cccc2ccccc12)CS(=O)(=O)C(C)(C)C)C(C)CC (stereo partly specified),0.302
5,COc1ccc(C[C@H](NC(=O)[C@@H](NC(=O)[C@H](Cc2cccc3ccccc23)CS(=O)(=O)C(C)(C)C)C(C)C)[C@@H](O)[C@H](O)[C@H](Cc2ccc(OC)cc2OC)NC(=O)[C@@H](NC(=O)[C@H](Cc2cccc3ccccc23)CS(=O)(=O)C(C)(C)C)C(C)C)c(OC)c1,18.2
6,CC(C)(C)[C@H](NC(=O)[C@H](Cc1cccc2ccccc12)CS(=O)(=O)C(C)(C)C)C(=O)N[C@@H](Cc1ccccc1)[C@@H](O)[C@H](O)[C@H](Cc1ccccc1)NC(=O)[C@@H](NC(=O)[C@H](Cc1cccc2ccccc12)CS(=O)(=O)C(C)(C)C)C(C)(C)C,0.501
7,CCC[C@H](NC(=O)[C@H](Cc1cccc2ccccc12)CS(=O)(=O)C(C)(C)C)C(=O)N[C@@H](Cc1ccccc1)[C@@H](O)[C@H](O)[C@H](Cc1ccccc1)NC(=O)[C@H](CCC)NC(=O)[C@H](Cc1cccc2ccccc12)CS(=O)(=O)C(C)(C)C,0.398
8,CC(C)(C)S(=O)(=O)C[C@@H](Cc1cccc2ccccc12)C(=O)N[C@@H](CCC(=O)O)C(=O)N[C@@H](Cc1ccccc1)[C@@H](O)[C@H](O)[C@H](Cc1ccccc1)NC(=O)[C@H](CCC(=O)O)NC(=O)[C@H](Cc1cccc2ccccc12)CS(=O)(=O)C(C)(C)C,0.741
9,CC(C)[C@H](NC(=O)[C@H](Cc1cccc2ccccc12)CS(=O)(=O)C(C)(C)C)C(=O)N[C@@H](Cc1ccc(O)cc1)[C@@H](O)[C@H](O)[C@H](Cc1ccc(O)cc1)NC(=O)[C@H](NC(=O)[C@H](Cc1cccc2ccccc12)CS(=O)(=O)C(C)(C)C)C(C)C,2.88
10,CC(C)[C@H](NC(=O)[C@@H](N)Cc1ccccc1)C(=O)N[C@@H](Cc1ccccc1)[C@@H](O)[C@H](O)[C@H](Cc1ccccc1)NC(=O)[C@@H](NC(=O)[C@@H](N)Cc1ccccc1)C(C)C,0.851
11,CC(C)(C)S(=O)(=O)C[C@@H](Cc1cccc2ccccc12)C(=O)N[C@@H](CC(N)=O)C(=O)N[C@@H](Cc1ccccc1)[C@@H](O)[C@H](O)[C@H](Cc1ccccc1)NC(=O)[C@H](CC(N)=O)NC(=O)[C@H](Cc1cccc2ccccc12)CS(=O)(=O)C(C)(C)C,100
12,CC(C)(C)S(=O)(=O)C[C@@H](Cc1cccc2ccccc12)C(=O)N[C@H](C(=O)N[C@@H](Cc1ccccc1)[C@@H](O)[C@H](O)[C@H](Cc1ccccc1)NC(=O)[C@@H](NC(=O)[C@H](Cc1cccc2ccccc12)CS(=O)(=O)C(C)(C)C)C1CCCCC1)C1CCCCC1,1.7
13,CC(O)[C@H](NC(=O)[C@H](Cc1cccc2ccccc12)CS(=O)(=O)C(C)(C)C)C(=O)N[C@@H](Cc1ccccc1)[C@@H](O)[C@H](O)[C@H](Cc1ccccc1)NC(=O)[C@@H](NC(=O)[C@H](Cc1cccc2ccccc12)CS(=O)(=O)C(C)(C)C)C(C)O (stereo partly specified),0.302
14,CC(C)[C@H](NC(=O)CCS(=O)(=O)C(C)(C)C)C(=O)N[C@@H](Cc1ccccc1)[C@@H](O)[C@H](O)[C@H](Cc1ccccc1)NC(=O)[C@@H](NC(=O)CCS(=O)(=O)C(C)(C)C)C(C)C,3.98
15,CC(C)[C@H](NC(=O)[C@H](Cc1ccncc1)CS(=O)(=O)C(C)(C)C)C(=O)N[C@@H](Cc1ccccc1)[C@@H](O)[C@H](O)[C@H](Cc1ccccc1)NC(=O)[C@@H](NC(=O)[C@H](Cc1ccncc1)CS(=O)(=O)C(C)(C)C)C(C)C,0.794
16,CC(C)[C@H](NC(=O)[C@H](Cc1cccc2ccccc12)NS(C)(=O)=O)C(=O)N[C@@H](Cc1ccccc1)[C@@H](O)[C@H](O)[C@H](Cc1ccccc1)NC(=O)[C@@H](NC(=O)[C@H](Cc1cccc2ccccc12)NS(C)(=O)=O)C(C)C,0.794

row,SMILES,IC50 [nM]
1,CC(C)[C@H](NC(=O)[C@H](Cc1cccc2ccccc12)CS(=O)(=O)C(C)(C)C)C(=O)N[C@@H](Cc1ccccc1)[C@@H](O)[C@H](O)[C@H](Cc1ccccc1)NC(=O)[C@@H](NC(=O)[C@H](Cc1cccc2ccccc12)CS(=O)(=O)C(C)(C)C)C(C)C,0.302
2,COc1ccc(C[C@H](CS(=O)(=O)C(C)(C)C)C(=O)N[C@H](C(=O)N[C@@H](Cc2ccccc2)[C@@H](O)[C@H](O)[C@H](Cc2ccccc2)NC(=O)[C@@H](NC(=O)[C@H](Cc2ccc(OC)cc2)CS(=O)(=O)C(C)(C)C)C(C)C)C(C)C)cc1,0.339
3,CC(C)[C@H](NC(=O)CCS(=O)(=O)c1ccncc1)C(=O)N[C@@H](Cc1ccccc1)[C@@H](O)[C@H](O)[C@H](Cc1ccccc1)NC(=O)[C@@H](NC(=O)CCS(=O)(=O)c1ccncc1)C(C)C,3.98
4,CC(C)[C@H](NC(=O)COc1cccc2ccccc12)C(=O)N[C@@H](Cc1ccccc1)[C@@H](O)[C@H](O)[C@H](Cc1ccccc1)NC(=O)[C@@H](NC(=O)COc1cccc2ccccc12)C(C)C,38
5,CC(C)[C@H](NC(=O)OCc1cccnc1)C(=O)N[C@@H](Cc1ccccc1)[C@@H](O)[C@H](O)[C@H](Cc1ccccc1)NC(=O)[C@@H](NC(=O)OCc1cccnc1)C(C)C,1.29
6,CC(C)[C@H](NC(=O)[C@@H](CC(=O)O)Cc1ccccc1)C(=O)N[C@@H](Cc1ccccc1)[C@@H](O)[C@H](O)[C@H](Cc1ccccc1)NC(=O)[C@@H](NC(=O)[C@@H](CC(=O)O)Cc1ccccc1)C(C)C,1.41
7,CC(C)[C@H](NC(=O)[C@H](Cc1cccc2ccccc12)CS(=O)(=O)C(C)(C)C)C(=O)N[C@@H](CCc1ccccc1)[C@@H](O)[C@H](O)[C@H](CCc1ccccc1)NC(=O)[C@@H](NC(=O)[C@H](Cc1cccc2ccccc12)CS(=O)(=O)C(C)(C)C)C(C)C,363
8,CCCCC[C@H](NC(=O)[C@@H](NC(=O)[C@H](Cc1cccc2ccccc12)CS(=O)(=O)C(C)(C)C)C(C)C)[C@@H](O)[C@H](O)[C@@H](CCCCC)NC(=O)[C@H](NC(=O)[C@H](Cc1cccc2ccccc12)CS(=O)(=O)C(C)(C)C)C(C)C,1
9,CC(C)(C)S(=O)(=O)C[C@@H](Cc1cccc2ccccc12)C(=O)N[C@H](C(=O)N[C@@H](Cc1ccccc1)[C@@H](O)[C@H](O)[C@H](Cc1ccccc1)NC(=O)[C@@H](NC(=O)[C@H](Cc1cccc2ccccc12)CS(=O)(=O)C(C)(C)C)C1CCCC1)C1CCCC1,0.302
10,CC(C)(C)S(=O)(=O)C[C@@H](Cc1cccc2ccccc12)C(=O)N[C@@H](Cc1c[nH]cn1)C(=O)N[C@@H](Cc1ccccc1)[C@@H](O)[C@H](O)[C@H](Cc1ccccc1)NC(=O)[C@H](Cc1c[nH]cn1)NC(=O)[C@H](Cc1cccc2ccccc12)CS(=O)(=O)C(C)(C)C,339
11,CC(C)[C@H](NC(=O)[C@H](Cc1ccccc1)CS(=O)(=O)C(C)(C)C)C(=O)N[C@@H](Cc1ccccc1)[C@@H](O)[C@H](O)[C@H](Cc1ccccc1)NC(=O)[C@@H](NC(=O)[C@H](Cc1ccccc1)CS(=O)(=O)C(C)(C)C)C(C)C,3.24
12,CC(C)[C@H](NC(=O)[C@@H](O)Cc1ccccc1)C(=O)N[C@@H](Cc1ccccc1)[C@@H](O)[C@H](O)[C@H](Cc1ccccc1)NC(=O)[C@@H](NC(=O)[C@@H](O)Cc1ccccc1)C(C)C,21.9
13,CC(C)[C@H](NC(=O)[C@H](Cc1cccc2ccccc12)CS(=O)(=O)C(C)(C)C)C(=O)NC[C@@H](O)[C@H](O)CNC(=O)[C@@H](NC(=O)[C@H](Cc1cccc2ccccc12)CS(=O)(=O)C(C)(C)C)C(C)C,2.19
14,"CC(C)[C@H](NC(=O)[C@H](Cc1ccccc1)NC(=O)[C@@H](O)C(O)[C@@H](O)C(O)O)C(=O)N[C@@H](Cc1ccccc1)[C@@H](O)[C@H](O)[C@H](Cc1ccccc1)NC(=O)[C@@H](NC(=O)[C@H](Cc1ccccc1)NC(=O)[C@@H](O)[C@@H](O)[C@@H](O)C(O)O)C(C)C (single isomer, unassigned)",0.891
15,"CC(C)[C@H](NC(=O)N(C)Cc1ccccn1)C(=O)N[C@@H](Cc1ccccc1)C(O)C(O)[C@H](Cc1ccccc1)NC(=O)[C@@H](NC(=O)N(C)Cc1ccccn1)C(C)C (single isomer, unassigned) [A-76928]",15.1
